Data set [1] has as its system host cell lines. The data set is described as follows: Toxicity in host cell lines. Type of data set: cell-based. The settings on record: at concentrations up to 100 μM.
Data set [2] addresses T1, human DNA polymerase γ (Homo sapiens, UniProt P54098).
T1 construct: purchased CHIMERx
T1 sequence (P54098 1-1239): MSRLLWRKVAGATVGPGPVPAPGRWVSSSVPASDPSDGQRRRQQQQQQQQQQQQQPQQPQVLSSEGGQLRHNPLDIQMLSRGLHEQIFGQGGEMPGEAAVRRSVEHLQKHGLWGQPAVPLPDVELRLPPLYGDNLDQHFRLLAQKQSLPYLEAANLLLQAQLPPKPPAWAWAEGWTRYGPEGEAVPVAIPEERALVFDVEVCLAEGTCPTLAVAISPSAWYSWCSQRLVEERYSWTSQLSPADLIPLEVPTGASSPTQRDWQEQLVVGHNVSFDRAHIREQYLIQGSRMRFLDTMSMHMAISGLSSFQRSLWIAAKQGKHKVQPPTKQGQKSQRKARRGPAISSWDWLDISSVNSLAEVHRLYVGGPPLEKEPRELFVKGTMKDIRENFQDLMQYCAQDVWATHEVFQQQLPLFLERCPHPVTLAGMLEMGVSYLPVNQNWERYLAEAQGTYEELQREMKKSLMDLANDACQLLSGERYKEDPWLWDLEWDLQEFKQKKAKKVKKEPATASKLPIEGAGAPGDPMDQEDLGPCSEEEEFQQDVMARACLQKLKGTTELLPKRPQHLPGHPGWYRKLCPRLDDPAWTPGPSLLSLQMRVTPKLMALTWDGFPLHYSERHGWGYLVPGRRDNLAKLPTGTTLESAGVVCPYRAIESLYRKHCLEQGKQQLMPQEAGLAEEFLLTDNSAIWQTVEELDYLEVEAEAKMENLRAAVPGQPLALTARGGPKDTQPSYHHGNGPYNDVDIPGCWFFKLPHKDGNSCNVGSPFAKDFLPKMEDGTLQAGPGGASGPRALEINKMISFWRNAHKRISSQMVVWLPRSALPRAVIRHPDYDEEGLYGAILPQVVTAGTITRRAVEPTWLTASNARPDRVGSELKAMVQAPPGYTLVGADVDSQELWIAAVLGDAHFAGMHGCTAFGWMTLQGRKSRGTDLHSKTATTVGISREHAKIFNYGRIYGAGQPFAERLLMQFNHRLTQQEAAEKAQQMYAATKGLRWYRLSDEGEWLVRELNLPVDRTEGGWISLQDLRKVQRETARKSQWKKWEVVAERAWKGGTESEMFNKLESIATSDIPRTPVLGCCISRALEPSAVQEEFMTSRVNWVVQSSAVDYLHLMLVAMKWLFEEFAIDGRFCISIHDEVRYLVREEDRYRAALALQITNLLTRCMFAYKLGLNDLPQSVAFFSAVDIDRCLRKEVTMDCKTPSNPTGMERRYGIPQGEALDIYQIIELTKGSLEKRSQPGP
Put plainly: Human DNA Polymerase Assays. Format: biochemical. Particulars: at concentrations up to 100 μM. Here is the method:
(§1) Inhibition of human DNA polymerases α, β and γ (CHIMERx) was determined in triplicate in reaction mixtures of serially diluted TA, 0.05 mM dCTP, dTTP, and dATP, 10 μCi [^32P]-α-dGTP (800 Ci/mmol), 20 μg activated calf thymus DNA and additional reagents specific for each polymerase.

The target in data set [3] is T2, human DNA polymerase β (Homo sapiens, UniProt P06746).
T2 construct: purchased CHIMERx
The data set is described as follows: Human DNA Polymerase Assays. Type of data set: biochemical. The settings on record: at concentrations up to 100 μM. Here is the method:
as §1

Data set [4] can be described thus: Stability in fresh human whole blood. Format: in vitro ADME. The settings on record: 10 μM, up to 120 min, FIG. 5. As to the method: The stability of selected compounds in fresh human whole blood and in human liver S9 fraction was determined in incubations containing 10 μM test compound. After incubations of 0, 30, 60 min, and up to 120 min, aliquots were removed and immediately extracted with 3 volumes of ice-cold methanol/acetonitrile (1:1, v/v). Extracts were centrifuged and supernatants were analyzed by LC-MS/MS for concentrations of unchanged test compound and potential metabolites.

Data set [5] has as its system micro-patterned human hepatocyte co-cultures. The data set is described as follows: Human Hepatocyte Co-Cultures (HepatoPac): cytotoxicity and hepatocyte health. Type of data set: cell-based. The settings on record: for IC50: Homo sapiens, Hepatocyte. As to the method:
Cytotoxicity and hepatocyte health were assessed in triplicate by measuring ALT leakage, urea production, albumin secretion and cellular ATP contents in micro-patterned human hepatocyte co-cultures (HepatoPac®, Hepregen Corporation) prepared by seeding cryopreserved human hepatocytes (single donor) and 3T3 J2 mouse fibroblasts in microtiter plates according to procedures established by Hepregen. Culture media was replaced with fresh media containing TA, test article, (0, 1, 10 or 30 μM) every 2 or 3 days through day 16. […] Cellular ATP levels were measured on days 9 and 21. ATP signals in stromal-only control cultures (murine 3T3 fibroblasts) were subtracted from those of human HepatoPac co-cultures to obtain hepatocyte-specific effects. See, Table 4, 5 and 6 below.

Where two headings read alike, the source gives them in different places.

Experimental findings from patent US12084473B2, “β-D-2′-deoxy-2′-α-fluoro-2′-β-C-substituted-2-modified-N6-substituted purine nucleotides for HCV treatment” (Atea Pharmaceuticals, Inc., priority 2015, dated 2024) are described below.

In the case of `CC(C)OC(=O)[C@H](C)N[P@](=O)(OCC1O[C@@H](n2cnc3c(N(C)C)nc(N)nc32)[C@](C)(F)[C@@H]1O)Oc1ccccc1` (stereo partly drawn) [Compound 25, isopropyl ((((S)-(2R,3R,4R,5R)-5-(2-amino-6-(dimethylamino)-9H-purin-9-yl)-4-fluoro-3-hydroxy-4-methyltetrahydrofuran-2-yl)methoxy)-phenoxy-phosphoryl)-L-alaninate], the “toxicity in all host cell lines” value in data set [1] was “no toxicity”. In addition, in data set [2], the “inhibition of human DNA polymerase γ” value is recorded as “No inhibition”. For the same molecule, in data set [3], the “inhibition of human DNA polymerase β” value is given as “No inhibition”.
As to `CNc1nc(N)nc2c1ncn2[C@@H]1OC(CO[P@@](=O)(N[C@@H](C)C(=O)OC(C)C)Oc2ccccc2)[C@@H](O)[C@@]1(C)F` (stereo partly shown) [Compound 5-2], the “stability in human blood” value in data set [4] is on record as “excellent stability”. The IC50 in data set [5] (48 h, Table 5, Day 2, read-out: Effect on Albumin Secretion, 50% Inhibitory Concentration (IC50)) is over 30 µM; in data set [5] (48 h, Table 6, Day 2, read-out: Effect on Albumin Secretion, 50% Inhibitory Concentration (IC50)) it was over 30 µM; in data set [5] (120 h, Table 5, Day 5, read-out: Effect on Albumin Secretion, 50% Inhibitory Concentration (IC50)), over 30 µM; in data set [5] (120 h, Table 6, Day 5, read-out: Effect on Albumin Secretion, 50% Inhibitory Concentration (IC50)) it was over 30 µM; in data set [5] (168 h, Table 5, Day 7, read-out: Effect on Albumin Secretion, 50% Inhibitory Concentration (IC50)) it was over 30 µM; in data set [5] (168 h, Table 6, Day 7, read-out: Effect on Albumin Secretion, 50% Inhibitory Concentration (IC50)), over 30 µM. The IC50 in data set [5] (216 h, Day 9, read-out: Effect on Cellular ATP Concentrations, 50% Inhibitory Concentration (IC50)) is over 30 µM; in data set [5] (216 h, Table 5, Day 9, read-out: Effect on Albumin Secretion, 50% Inhibitory Concentration (IC50)) it was over 30 µM; in data set [5] (216 h, Table 6, Day 9, read-out: Effect on Albumin Secretion, 50% Inhibitory Concentration (IC50)) it was over 30 µM; in data set [5] (288 h, Table 6, Day 12, read-out: Effect on Albumin Secretion, 50% Inhibitory Concentration (IC50)), over 30 µM; in data set [5] (384 h, Table 6, Day 16, read-out: Effect on Albumin Secretion, 50% Inhibitory Concentration (IC50)) it was 24.2 µM; in data set [5] (504 h, Day 21, read-out: Effect on Cellular ATP Concentrations, 50% Inhibitory Concentration (IC50)), 12.8 µM. Further, the IC50 in data set [5] (504 h, Table 6, Day 21, read-out: Effect on Albumin Secretion, 50% Inhibitory Concentration (IC50)) is 14.5 µM. Also, the “signs of cytotoxicity by ALT leakage, albumin secretion, urea production and cellular ATP content” value in data set [5] (concentrations up to 30 μM, up to 12 days) is “no signs of cytotoxicity”. Moreover, in data set [5] (up to 21 days of culture), the “cytotoxicity with extended exposure” value is recorded as “minor indications of cytotoxicity”.
Consider `CC(C)OC(=O)[C@H](C)N[P@](=O)(OCC1O[C@@H](n2cnc3c(N(C)C4CC4)nc(N)nc32)[C@](C)(F)[C@@H]1O)Oc1ccccc1` (stereo partly drawn) [Compound 27, isopropyl ((((S)-(2R,3R,4R,5R)-5-(2-amino-6-(methylcyclopropanamino)-9H-purin-9-yl)-4-fluoro-3-hydroxy-4-methyltetrahydrofuran-2-yl)methoxy)-phenoxy-phosphoryl)-L-alaninate], for which the “toxicity in all host cell lines” value in data set [1] is on record as “no toxicity”. The “inhibition of human DNA polymerase γ” value in data set [2] is recorded as “No inhibition”. For the same molecule, in data set [3], the “inhibition of human DNA polymerase β” value is recorded as “No inhibition”.
